Patent US20140271534A1, “COMPOUNDS, COMPOSITIONS, AND METHODS FOR REPELLING AN INSECT FROM AN AREA, ARTICLE, AND/OR STRUCTURE” (BAYER CROPSCIENCE LP, priority 2013, published 2014)

How the values were obtained:
honeybees = assay: honeybee repulsion experiment, feeding stations with 50% sucrose; format: in vivo; details: for repellency to honeybees at 24 hours: 2% by weight in 50% sucrose feeder
Method: FIG. 1 describes the feeding station arrangement (A and B) for the honeybee repulsion experiments described herein. As set forth in FIG. 1, panel (A) sets forth the bee cage positions on the left portion of panel (A) with the randomized feeding station positions on the right portion of panel (A). Panel (B) sets forth an alignment of the randomized feeding station positions with a distance of two meters between feeding stations. A total of eight feeding stations were evaluated at a ten meter distance in front of the respective bee hives. The feeding stations were placed two meters apart from one another.
Honeybees were trained to deep feeders (eight positions), each containing a 50% sucrose solution for one day. After the honeybees were trained to each feeder, the 50% sucrose feeder at randomized positions 1-8 was replaced with a shallow feeder containing a combination of repelling compounds and a 50% sucrose solution according to Table 3. In accordance with FIGS. 5 and 6, 2% by weight of Camphor oil (T4), Ajowan oil (T5), Camphor powder (T6), Rosemary oil (T7), and 2-Decanone (T8) in combination with a 50% sucrose treatment were added to feeders on day two.
Table 3 describes active agents evaluated for bee repulsion and their randomized feeding station positions. As described in Table 3, T1 (control), T2 (control), T3 (control), T4 (Camphor oil), T5 (Ajowan oil), T6 (Camphor powder), T7 (Rosemary oil), and T8 (2-Decanone).
FIG. 5 evaluates the number of bees visiting a respective feed station over a time interval. FIG. 6 sets forth the mean number of honeybees visiting feeding station over a period of four hours.

[1] = stability test of Poncho combined with Eugenol, clothianidin content by HPLC; format: physicochemical; details: in Poncho combined with Eugenol; up to 54° C. for seven days
Method: Table 4 describes a stability test with a combination of Eugenol and Poncho evaluated at room temperature, 40° C., and 54° C. at zero time, 3 days, and 7 days as confirmed by high performance liquid chromatography (HPLC).

[2] = stability test of Poncho 600 combined with α-terpineol, clothianidin content by HPLC; format: physicochemical; details: in Poncho combined with alpha-terpineol; up to 54° C. for eight days
Method: Table 5 describes a stability test with a combination of α-terpineol and Poncho 600 evaluated at room temperature, 40° C., and 54° C. at zero time, 2 days, and 8 days as confirmed by HPLC.

SMILES	repellency to honeybees at 24 hours (honeybees)	repellency to honeybees at 24 hours (honeybees; listed as 2-decanone)	repellency to honeybees over the full 4 hour assessment period (honeybees; in 50% sucrose feeder, 4 hour assessment period)	chemical stability of clothianidin content [1]	chemical stability of clothianidin content [2]
CCCCCCCCC(C)=O [Compound 2-Decanone, 2-decanone]	exhibited repellency	still repellent	highly repellent		
CN/C(=N\[N+](=O)[O-])NCc1cnc(Cl)s1 [clothianidin]				exhibited chemical stability	exhibited chemical stability
